Results published in US4525358A, “2-[4-(Diphenylmethyl)-1-piperazinyl]-acetic acids and their amides” (UCB Pharmaceuticals, Inc., priority 1981, dated 1985).
Like-named read-outs stand apart in the source and are kept apart here.

Assays:
[1] = system: passive cutaneous anaphylaxis; assay: passive cutaneous anaphylaxis test (PCA), antiallergic activity; assay type: in vivo; details: rats; for ED50: Rattus norvegicus, po, read-out: ID 50 per os (reduction of 50% of the surface area of the colored spot); for ED50 / antiallergic activity (PCA), in words: per os
Description: This activity is determined in rats by means of the passive cutaneous anaphylaxis test (PCA) (see J. GOOSE and A. M. J. N. BlAIR, Immunology, 16, (1969), 749-760; and […] and D. ROEMER, Arzneimittel-Forschung, 28, (5), (1978), 770-782). Female rats are used, the sides of which have been partly shaved. Into the zone thus shaved there is injected intradermally, for passive sensitization of the animals, 0.05 ml of IGE antiovalbumin serum at a dilution such that, at the time of the PCA test, a distinct spot with a surface area of about 100 mm^2 appears at the point of injection. […] At the point of intradermal injection, there appears a distinct blue spot, the surface of which is measured. In order to test the activity of the compounds according to the present invention, the procedure is carried out in the same manner; however, the test compound is administered orally 72 hours after injection of the serum; 15 minutes after this administration, 0.25 ml of the solution of the allergen is injected intravenously; 30 minutes after the administration of the allergen, the surface of the blue spot is measured.

mice = details: intraperitoneal, two animals out of three
Description: In the following Table IV, the lethal doses in mg/kg (two animals out of three) are given for compounds of the invention when administered intraperitoneally in mice:

[2] = system: bronchospasms induced by serotonin; assay: inhibition of serotonin-induced bronchospasms (Konzett and Roessler), spasmolytic activity; assay type: in vivo, guinea pig; details: for ED50: Cavia porcellus, iv, read-out: ID 50, inhibition of bronchospasms induced by serotonin
Description: (§1) Anaesthetized and curarized guinea pigs are subjected to artificial ventilation. The endotracheal pressure is recorded. Repetitive bronchial spasms are induced by successive and progressive intravenous injections of serotonin and histamine, respectively. The test compounds are also administered intravenously.

[3] = system: bronchospasms induced by histamine; assay: inhibition of histamine-induced bronchospasms (Konzett and Roessler), antihistaminic activity; assay type: in vivo, guinea pig; details: for ED50: Cavia porcellus, iv, read-out: ID 50, inhibition of bronchospasms induced by histamine
Description: as §1

[4] = system: general behaviour of mice; assay: general behaviour of mice (Irwin's test), tranquilization; assay type: in vivo
[5] = intravenous; cited from earlier work
[6] = Belgian Patent Specification No. 763,609; cited from earlier work
[7] = J. med. Chem. 11 (1968), 390-391; cited from earlier work
[8] = guinea pig, intravenous, serotonin
[9] = guinea pig, intravenous, histamine

Row | SMILES | ED50 ([1]; 15 minutes before allergen) [µmol/kg] | Lethal dose (2/3) (mice) [mg/kg] | ED50 [2, 8] [µmol/kg] | ED50 [3, 9] [µmol/kg] | Tranquilizing dose (first manifestations of tranquilization) ([4]; male mice, intraperitoneal) [mg/kg] | further results
1 | NC(=O)COCCN1CCN(C(c2ccccc2)c2ccc(F)cc2)CC1 (centres unmarked) [C, 2-[2-[4-[(4-fluorophenyl)phenylmethyl]-1-piperazinyl]ethoxy]-acetamide] | 18.9 | 386 | 0.94 | 0.71 | 115 | –
2 | O=C1Nc2ccc(Cl)cc2C(c2ccccc2)=NC1O (centres unmarked) [Oxazepam, 7-chloro-1,3-dihydro-3-hydroxy-5-phenyl:2H-1,4-benzodiazepin-2-one, reference compound] | – | – | – | – | 2.6 | –
3 | NC(=O)COCCN1CCN(C(c2ccccc2)c2ccccc2)CC1 [A, 2-[2-[4-(Diphenylmethyl)-1-piperazinyl]ethoxy]-acetamide] | – | 255 | 0.78 | 0.23 | – | –
4 | O=C([O-])COCCN1CCN(C(c2ccccc2)c2ccc(Cl)cc2)CC1.[K+] (centres unmarked) [H, potassium 2-[2-[4-[(4-chlorophenyl)phenylmethyl]-1-piperazinyl]ethoxy]-acetate] | – | – | – | – | 46.2 | ED50 [2]: 7 µmol/kg; ED50 [3]: 0.23 µmol/kg
5 | Cl.Cl.NC(=O)COCCOCCN1CCN(C(c2ccccc2)c2ccccc2)CC1 [F, 2-[2-[2-[4-(Diphenylmethyl)-1-piperazinyl]ethoxy]ethoxy]-acetamide dihydrochloride] | 10.6 | 282 | 0.32 | 0.25 | 94 | –
6 | Cl.Cl.O=C(O)COCCOCCN1CCN(C(c2ccccc2)c2ccc(Cl)cc2)CC1 (centres unmarked) [M, 2-[2-[2-[4-[(4-chlorophenyl)phenylmethyl]-1-piperazinyl]ethoxy]ethoxy]-acetic acid dihydrochloride] | – | 505 | 10 | 0.79 | 505 | –
7 | O=C(O)c1cc(=O)c2c(OCC(O)COc3cccc4oc(C(=O)O)cc(=O)c34)cccc2o1 [sodium cromoglycate] | – | – | – | – | – | ID 50 per os (reduction of 50% of the surface area of the colored spot) ([1]; 15 minutes before allergen): inactive; antiallergic activity (PCA), in words [1]: inactive; antiasthmatic activity [5]: well known for its antiasthmatic activity
8 | O=C(O)COCCN1CCN(C(c2ccccc2)c2ccc(Cl)cc2)CC1 (centres unmarked) [J, 2-[2-[4-[(4-chlorophenyl)phenylmethyl]-1-piperazinyl]ethoxy]-acetic acid] | – | – | – | – | 138 | ID 50, inhibition of bronchospasms induced by serotonin [2, 8]: 7.3 µmol/kg; antihistaminic activity retained ([3]; guinea pig, intravenous, 1 μmol/kg single dose, after 5 hours): 100%; ID 50, inhibition of bronchospasms induced by histamine [3, 9]: 0.20 µmol/kg
9 | COc1ccc(C(c2ccccc2)N2CCN(CCOCC(N)=O)CC2)cc1.Cl.Cl (centres unmarked) [E, 2-[2-[4-[(4-methoxyphenyl)phenylmethyl]-1-piperazinyl]ethoxy]-acetamide dihydrochloride] | – | 456 | 10 | 0.67 | 136 | –
10 | O=C(O)CN1CCN(C(c2ccccc2)c2ccc(Cl)cc2)CC1 (centres unmarked) [Compound 4, reference compound] | > 320 | – | > 32 | 7.8 | – | antiallergic activity (PCA), in words [1]: of little interest; activity with regard to bronchospasms induced by serotonin (antispasmodic), in words [2, 8]: considerbly less active; activity with regard to bronchospasms induced by histamine (antihistaminic), in words [3, 9]: considerbly less active
11 | NC(=O)CN1CCN(C(c2ccccc2)c2ccccc2)CC1 [Compound 1, 2-[4-(diphenylmethyl)-1-piperazinyl]-acetamide, reference compound] | > 320 | – | 77 | 2.1 | – | antiallergic activity (PCA), in words [1]: of little interest; activity with regard to bronchospasms induced by serotonin (antispasmodic), in words [2, 8]: considerbly less active; activity with regard to bronchospasms induced by histamine (antihistaminic), in words [3, 9]: considerbly less active; diuretic activity [6]: possesses a diuretic activity
12 | O=C(O)COCCN1CCN(C(c2ccccc2)c2ccccc2)CC1 [K, 2-[2-[4-(diphenylmethyl)-1-piperazinyl]ethoxy]-acetic acid] | – | 708 | 9.5 | 0.093 | 106 | –
13 | Cl.Cl.O=C(O)COCCOCCN1CCN(C(c2ccccc2)c2ccccc2)CC1 [L, 2-[2-[2-[4-(diphenylmethyl)-1-piperazinyl]ethoxy]ethoxy]-acetic acid dihydrochloride] | – | 942 | 5.69 | 0.39 | 141 | –
14 | OCCOCCN1CCN(C(c2ccccc2)c2ccc(Cl)cc2)CC1 (centres unmarked) [Hydroxyzine, 2-[2-[4-[(4-chlorophenyl)phenylmethyl]-1-piperazinyl]-ethoxy]-ethanol, reference compound] | – | – | – | – | – | Tranquilizing dose (first manifestations of tranquilization) ([4]; mouse, in vivo, ip): 27 mg/kg
15 | O.O=C(O)COCCN1CCN(C(c2ccccc2)c2ccc(F)cc2)CC1 (centres unmarked) [N, 2-[2-[4-[(4-fluorophenyl)phenylmethyl]-1-piperazinyl]ethoxy]-acetic acid hydrate] | 10.2 | 372 | 2.1 | 0.08 | 372 | –
16 | Cl.Cl.NC(=O)COCCN1CCN(C(c2ccccc2)c2ccccc2Cl)CC1 (centres unmarked) [D, 2-[2-[4-[(2-chlorophenyl)phenylmethyl]-1-piperazinyl]ethoxy]-acetamide dihydrochloride] | – | 460 | 1.1 | 0.63 | > 460 | –
17 | NC(=O)CN1CCN(C(c2ccccc2)c2ccc(Cl)cc2)CC1 (centres unmarked) [Compound 2, 2-[4-[(4-chlorophenyl)phenylmethyl]-1-piperazinyl]-acetamide, reference compound] | > 320 | – | 11 | 3.1 | – | activity as a hypocholesteremic agent [7]: not very encouraging; antiallergic activity (PCA), in words [1]: of little interest; activity with regard to bronchospasms induced by serotonin (antispasmodic), in words [2, 8]: considerbly less active; activity with regard to bronchospasms induced by histamine (antihistaminic), in words [3, 9]: considerbly less active
18 | NC(=O)COCCN1CCN(C(c2ccccc2)c2ccc(Cl)cc2)CC1 (centres unmarked) [B, 2-[2-[4-[(4-chlorophenyl)phenylmethyl]-1-piperazinyl]ethoxy]-acetamide] | 36.5 | 232 | 0.88 | 0.45 | 38.7 | –
19 | O=C(O)COCCN1CCN(C(c2ccccc2)c2ccc(Cl)cc2)CC1 (centres unmarked) [I, 2-[2-[4-[(4-chlorophenyl)phenylmethyl]-1-piperazinyl]ethoxy]-acetic acid] | – | – | 9.44 | 0.205 | – | –
20 | O=C(O)CN1CCN(C(c2ccccc2)c2ccccc2)CC1 [Compound 3, 2-[4-(diphenylmelthyl)-1-piperazinyl]-acetic acid, reference compound] | > 320 | – | > 32 | 5 | – | antiallergic activity (PCA), in words [1]: of little interest; activity with regard to bronchospasms induced by serotonin (antispasmodic), in words [2, 8]: considerbly less active; activity with regard to bronchospasms induced by histamine (antihistaminic), in words [3, 9]: considerbly less active
21 | Cl.Cl.NC(=O)COCCOCCN1CCN(C(c2ccccc2)c2ccc(Cl)cc2)CC1 (centres unmarked) [G, 2-[2-[2-[4-[(4-chlorophenyl)phenylmethyl]-1-piperazinyl]ethoxy]ethoxy]-acetamide dihydrochloride] | – | 339 | 0.66 | 1.14 | 34 | –
22 | Cn1c(=O)c2[nH]cnc2n(C)c1=O [Theophylline, reference compound] | – | – | – | – | – | ED50 [2]: 10 µmol/kg; ED50 [3]: 10 µmol/kg
